# Test results reported in patent US7923465B2, “Cannabinoid receptor ligands, pharmaceutical compositions containing them, and process for their preparation” (priority 2005, dated 2011).
# Like-named read-outs stand apart in the source and are kept apart here.
# Assays:
# hCB2 [1] = biological target: T1, hCB2 (Homo sapiens, UniProt P34972); test: Agonism of CB2 receptors expressed in CHO cells, forskolin cAMP assay (Protocol IX.2); assay type: cell-based; set-up: expressed in transfected cells; host or cells: CHO (h-CB2/CHO, G418-selected); conditions: cAMP; for hCB2 Agonism: at 10 uM
# Experimental: (§1) IX. Assay for Determining Agonist and Antagonist Activity to CB1 and CB2 Receptors
# (§2) 2. Agonism of CB1/CB2 Receptors Expressed in CHO Cells
# (§3) h-CB1/CHO or h-CB2/CHO cells were grown in HAM's F12 DMEM medium (Sigma) with 10% FBS (Hyclone), 1% penicillin-streptomycin solution and 400 μg/ml of G418 (Sigma). 5000 cells were seeded per well in a 96 well plate and incubated for 24 hours at 37° C. in 5% CO2. On the day of assay, cells were washed with warm Krebs Buffer containing 0.1% fatty acid free (FAF) BSA (Sigma) and re-suspended in the same buffer containing 1 mM IBMX. Test compound or CP 55,940 as a reference compound (30 nM final concentration for CB1 testing and 10 μM of the same for CB2 testing) diluted in FFB+IBMX+Krebs buffer was added to the cells followed by forskolin addition (10 uM final concentration) and incubated for 30 minutes at room temperature. At the end of incubation, cells were lysed using lysis reagent from the cAMP estimation kit and cAMP was quantitated by chemiluminescence method described in the manufacturer's instructions (DiscoveRX). EC50 values were calculated from dose response curves by nonlinear regression analysis using PRISM software.
# hCB2 [2] = biological target: T1, hCB2; test: Antagonism of CB2 receptors expressed in CHO cells, cAMP assay against CP 55,940 (Protocol IX.1); assay type: cell-based; set-up: expressed in transfected cells; host or cells: CHO (h-CB2/CHO, G418-selected); conditions: CHO, h-CB2/CHO cells, vs 10 nM CP 55,940
# Experimental: as §1
# (§4) 1. Antagonism of CB1/CB2 Receptors Expressed in CHO Cells.
# h-CB1/CHO or h-CB2/CHO cells were grown in HAM's F12 DMEM medium (Sigma) with 10% FBS (Hyclone), 1% penicillin-streptomycin solution and 400 μg/ml of G418 (Sigma). 5000 cells were seeded per well in a 96 well plate and incubated for 24 hours at 37° C. in 5% CO2. On the day of assay, cells were washed with warm Krebs buffer containing 0.1% fatty acid free (FAF) BSA (Sigma) and re-suspended in the same buffer containing 1 mM IBMX. Test antagonist or reference compound (AM 251 (1-(2,4-dichlorophenyl)-5-(4-iodophenyl)-4-methyl-N-(1-piperidyl)pyrazole-3-carboxamide) for CB1 and SR144528 for CB2) diluted in FAFBSA+IBMX+Krebs buffer was added to the cells and incubated for 10 minutes at room temperature. CP 55,940 (30 nM final concentration for CB1 testing and 10 nM of the same for CB2 testing) was added to cells followed by forskolin (10 μM final concentration) and incubated for 30 minutes at room temperature. At the end of incubation, cells were lysed using lysis reagent from the cAMP estimation kit and cAMP was quantitated by the chemiluminescence method described in the manufacturer's instructions (DiscoveRX). EC50 values were calculated from dose response curves by nonlinear regression analysis using PRISM software.
# hCB2 [3] = biological target: T1, hCB2; test: In vitro binding assay using hCB2-CHO membranes, [3H]-CP-55,940 displacement (Protocol IV); set-up: expressed in transfected cells; host or cells: CHO (hCB2-CHO, generated in-house); conditions: 1 h, read-out: % Displacement Protocol IV
# Summary of the method: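 Displacement of [3H]-CP-55,940 (0.75 nM) from membranes of CHO cells expressing human CB2 (25-50 μg) was measured in Tris-BSA buffer pH 7.4 with 5 mM MgCl2, 1 mM EDTA, 0.1% BSA, 1 h at 30 °C. Test compounds were at 300 nM final; nonspecific binding defined with 0.5 μM CP-55,940. Values are % displacement of specific binding.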
# CB1 [4] = biological target: T2, CB1 (Rattus norvegicus, UniProt P20272); test: Rat CB1 receptor binding using brain membrane, [3H]SR141716A displacement (Protocol I); set-up: CB1 receptor present in a rat brain membrane preparation; from tissue; host or cells: rat brain membrane; inhibition: dose or concentration left out as unconfirmed; conditions: 1 h; rat brain membrane, [3H]SR141716A displacement; read-out: % Displacement Protocol I
# hCB1 [5] = biological target: T3, hCB1 (Homo sapiens, UniProt P21554); test: Agonism of CB1 receptors expressed in CHO cells, forskolin cAMP assay (Protocol IX.2); assay type: cell-based; set-up: expressed in transfected cells; host or cells: CHO (h-CB1/CHO, G418-selected); conditions: CHO, at 10 uM, h-CB1/CHO cells, cAMP
# Experimental: as §1, §2
# as §3, with “Test compound or CP 55,940 as a reference compound (30 nM final concentration for CB1 testing and 10 μM of the same for CB2 testing) diluted in FFB+IBMX+Krebs buffer was added to the cells followed by forskolin addition (10 uM final concentration) and incubated for 30 minutes at room temperature.” left out
# hCB1 [6] = biological target: T3, hCB1; test: Antagonism of CB1 receptors expressed in CHO cells, cAMP assay against CP 55,940 (Protocol IX.1); assay type: cell-based; set-up: expressed in transfected cells; host or cells: CHO (h-CB1/CHO, G418-selected); conditions: at 10 uM, h-CB1/CHO cells, cAMP, vs 30 nM CP 55,940; read-out: hCB1 Antagonism
# Experimental: as §1, §4
# h-CB1/CHO or h-CB2/CHO cells were grown in HAM's F12 DMEM medium (Sigma) with 10% FBS (Hyclone), 1% penicillin-streptomycin solution and 400 μg/ml of G418 (Sigma). 5000 cells were seeded per well in a 96 well plate and incubated for 24 hours at 37° C. in 5% CO2. On the day of assay, cells were washed with warm Krebs buffer containing 0.1% fatty acid free (FAF) BSA (Sigma) and re-suspended in the same buffer containing 1 mM IBMX. […] At the end of incubation, cells were lysed using lysis reagent from the cAMP estimation kit and cAMP was quantitated by the chemiluminescence method described in the manufacturer's instructions (DiscoveRX). EC50 values were calculated from dose response curves by nonlinear regression analysis using PRISM software.
# CB1 [7] = biological target: T2, CB1; test: GTPγS binding assay, CB1 functional assay in rat cerebellar membrane (Protocol VIII); assay type: biochemical; set-up: 10 μg rat cerebellum membrane; from tissue; host or cells: rat cerebellum membrane, prepared in-house
# Summary of the method: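 Rat cerebellar membranes (10 μg) incubated 1 h at 30 °C with 0.2 nM [35S]GTPγS, 50 μM GDP, and compound at 1 μM or 300 nM, alone or with 1 μM WIN 55,212-2, in Tris/MgCl2/EGTA/NaCl pH 7.4. Filter-bound radioactivity counted; percent stimulation calculated against basal specific binding (nonspecific defined by 10 μM GTPγS).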
# [8] = hCB2 Agonism IC50, h-CB2/CHO cells
# [9] = hCB2-CHO membranes, [3H]-CP-55,940 displacement
# [10] = h-CB2/CHO cells, read-out: hCB2 Agonism IC50
# T1 sequence (P34972 whole entry): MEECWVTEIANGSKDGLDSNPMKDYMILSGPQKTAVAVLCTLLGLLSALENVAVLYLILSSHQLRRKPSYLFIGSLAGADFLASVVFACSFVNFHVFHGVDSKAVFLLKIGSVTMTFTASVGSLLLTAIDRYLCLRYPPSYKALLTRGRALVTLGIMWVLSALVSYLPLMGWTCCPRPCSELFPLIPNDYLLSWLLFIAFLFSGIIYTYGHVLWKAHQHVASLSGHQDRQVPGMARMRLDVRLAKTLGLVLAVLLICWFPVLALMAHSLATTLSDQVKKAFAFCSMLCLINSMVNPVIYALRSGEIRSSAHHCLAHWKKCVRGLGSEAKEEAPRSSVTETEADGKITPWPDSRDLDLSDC
# T3 sequence (P21554 whole entry): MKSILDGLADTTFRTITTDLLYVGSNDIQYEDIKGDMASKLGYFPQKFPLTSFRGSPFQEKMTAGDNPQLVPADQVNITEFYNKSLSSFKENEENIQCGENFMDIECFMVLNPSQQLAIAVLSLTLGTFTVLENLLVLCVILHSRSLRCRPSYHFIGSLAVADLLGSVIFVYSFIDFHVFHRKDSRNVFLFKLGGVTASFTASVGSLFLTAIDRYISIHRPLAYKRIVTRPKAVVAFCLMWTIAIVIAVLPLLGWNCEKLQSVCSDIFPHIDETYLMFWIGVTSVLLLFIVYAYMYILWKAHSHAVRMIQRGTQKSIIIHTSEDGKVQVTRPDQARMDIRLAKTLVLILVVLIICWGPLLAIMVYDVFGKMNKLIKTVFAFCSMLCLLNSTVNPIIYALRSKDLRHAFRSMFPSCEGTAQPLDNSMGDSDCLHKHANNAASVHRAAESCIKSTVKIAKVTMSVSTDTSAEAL
# T2 sequence (P20272 whole entry): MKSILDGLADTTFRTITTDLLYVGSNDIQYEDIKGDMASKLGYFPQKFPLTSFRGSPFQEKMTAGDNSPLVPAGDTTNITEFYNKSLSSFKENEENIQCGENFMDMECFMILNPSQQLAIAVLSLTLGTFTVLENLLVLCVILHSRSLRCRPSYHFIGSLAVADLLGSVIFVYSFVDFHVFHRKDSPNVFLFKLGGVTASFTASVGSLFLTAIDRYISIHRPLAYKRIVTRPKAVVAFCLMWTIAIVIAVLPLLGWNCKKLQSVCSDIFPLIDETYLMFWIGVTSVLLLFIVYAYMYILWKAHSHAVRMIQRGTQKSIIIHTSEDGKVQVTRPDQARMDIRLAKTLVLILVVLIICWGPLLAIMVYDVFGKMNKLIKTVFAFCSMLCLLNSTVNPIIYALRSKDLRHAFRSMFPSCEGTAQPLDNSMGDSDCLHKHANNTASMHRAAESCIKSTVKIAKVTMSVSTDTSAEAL
Structure (SMILES),melting point [°C],IC50 (hCB2 [1]; [8]) [nM],inhibition at 10 µM (hCB2 [2]) [%],inhibition at 0.3 µM (hCB2 [3]; [9]) [%],inhibition (CB1 [4]) [%],inhibition at 10 µM (hCB1 [6]) [%],other results
"O=C(NC1CCCCC1)c1nn(-c2ccccc2Cl)c2c1C1CCC2C1 (stereo not drawn) [Example 206, N(3)-Cyclohexyl-1-(2-chlorophenyl)-4,5,6,7-tetrahydro-1H-4,7-methano-indazole-3-carboxamide]",171,10.5,16,71.9,27.4,–,–
"O=C(NN(C1CCCCC1)C1CCCCC1)c1nn(-c2ccc(Cl)cc2Cl)c2c1C1CCC2C1 (stereo not drawn) [Example 239, N(3)-(N,N-Dicyclohexylamino)-1-(2,4-dichlorophenyl)-4,5,6,7-tetrahydro-1H-4,7-methano-indazole-3-carboxamide]",127 to 130,42.5,64.1,77.1,23.5,–,–
"O=C(NNc1ncccc1Cl)c1nn(-c2ccc(Cl)cc2)c2c1C1CC3CC(C1)CC2C3 [Example 134, N(7)-(3-Chloro-2-pyridylamino)-5-(4-chlorophenyl)-5,6-diazatetracyclo[7.3.1.1^3,11.0^4,8]tetradeca-4(8),6-diene-7-carboxamide]",200 to 203,–,–,–,89.6,17.5,"activation at 10 µM (hCB1 [5]): 75.6%; activation at 0.3 µM (CB1 [7]; 1 h, GTPγS binding over basal, rat cerebellar membrane, tested at 300 nM, read-out: Per Se % Stimulation): -6%; inhibition at 0.3 µM (CB1 [7]; GTPγS binding, tested at 300 nM in presence of 1 μM WIN 55,212-2, read-out: % Inhibition of WIN-55212-2 induced stimulation): 58.1%"
"O=C(NCc1ccccc1Cl)c1nn(-c2ccc(F)cc2F)c2c1C1CC3CC(C1)CC2C3 [Example 149, N(7)-(2-Chlorobenzyl)-5-(2,4-difluorophenyl)-5,6-diazatetracyclo[7.3.1.1^3,11.0^4,8]tetradeca-4(8),6-diene-7-carboxamide]",136,–,–,–,–,16,activation at 10 µM (hCB1 [5]): 79.9%
"O=C(NCC1CCCCC1)c1nn(-c2ccc(Cl)cc2Cl)c2c1C1CCC2C1 (stereo not drawn) [Example 238, N(3)-Cyclohexylmethyl-1-(2,4-dichlorophenyl)-4,5,6,7-tetrahydro-1H-4,7-methano-indazole-3-carboxamide]",111 to 113,–,24.5,–,73.9,–,"hCB2 Agonism (hCB2 [1]; h-CB2/CHO cells): 55.05% at; activation at 1 µM (CB1 [7]; 1 h, GTPγS binding over basal, rat cerebellar membrane, tested at 1 uM, read-out: Per Se % Stimulation): 0.4%; inhibition at 1 µM (CB1 [7]; GTPγS binding, tested at 1 uM in presence of 1 μM WIN 55,212-2, read-out: % Inhibition of WIN-55212-2 induced stimulation): 59.1%"
"O=C(NCc1ccc(Cl)cc1Cl)c1nn(-c2ccc(Cl)cc2)c2c1C1CCC2C1 (stereo not drawn) [Example 223, N(3)-(2,4-Dichlorobenzyl)-1-(4-chlorophenyl)-4,5,6,7-tetrahydro-1H-4,7-methano-indazole-3-carboxamide]",108 to 111,1.49,24.4,59.5,52.1,0,–
"CCCCCNC(=O)c1nn(-c2ccc(F)cc2F)c2c1C1CCC2C1 (stereo not drawn) [Example 306, N5-n-Pentyl-3-(2,4-difluorophenyl)-3,4-diazatricyclo[5.2.1.0^2,6]deca-2(6),4-diene-5-carboxamide]",75 to 78,–,14.4,–,–,–,IC50 (hCB2 [1]; [10]): 11.9 nM; inhibition at 0.3 µM (hCB2 [3]): 62.9%
"O=C(NCc1ccc(Cl)cc1Cl)c1nn(-c2ccc(F)cc2F)c2c1C1CCC2C1 (stereo not drawn) [Example 307, N5-(2,4-Dichlorobenzyl)-3-(2,4-difluorophenyl)-3,4-diazatricyclo[5.2.1.0^2,6]deca-2(6),4-diene-5-carboxamide]",105 to 108,–,21.6,–,–,–,IC50 (hCB2 [1]; [10]): 0.81 nM; inhibition at 0.3 µM (hCB2 [3]): 70.3%
"O=C(NNc1ccc(F)cc1F)c1nn(-c2ccc(Cl)cc2Cl)c2c1C1CCC2C1 (stereo not drawn) [Example 265, N(3)-[(2,4-Difluorophenyl)amino]-1-(2,4-dichlorophenyl)-4,5,6,7-tetrahydro-1H-4,7-methano-indazole-3-carboxamide]",157 to 160,23.1,27.2,70.2,31.6,–,–
"O=C(NC12CC3CC(CC(C3)C1)C2)c1nn(-c2ccc(Cl)cc2Cl)c2c1C1CCC2c2ccccc21 (stereo not drawn) [Example 506, N(12)-(Adamantan-1yl)-10-(2,4-dichlorophenyl)-10,11-diazatetracyclo[6.5.2.0^2,7.0^9,13]pentadeca-2,4,6,9(13),11-pentaene-12-carboxamide]",120 to 124,–,80.2,–,–,–,hCB2 Agonism (hCB2 [1]; h-CB2/CHO cells): 0% at 10 uM; inhibition at 0.3 µM (hCB2 [3]): 52.4%
"O=C(NNc1ccc(Cl)cc1Cl)c1nn(-c2ccc(F)cc2F)c2c1C1CC3CC(C1)CC2C3 [Example 150, N(7)-(2,4-Dichlorophenylamino)-5-(2,4-difluorophenyl)-5,6-diazatetracyclo[7.3.1.1^3,11.0^4,8]tetradeca-4(8),6-diene-7-carboxamide]",162,–,–,–,–,42.9,activation at 10 µM (hCB1 [5]): 61.1%
